In brackets after ≈: the same amount, converted by molar mass. Positions of bridges follow the written chain, without caps; N, C: chain ends. Non-standard residues stand in square brackets, D forms with d. Residues, ends and D or L forms follow the SMILES beside them. ξ: configuration not given here. *: point of attachment. Octanoyl(7-Me) = CC(C)CCCCCC(=O)*; Hexanoyl(4ξ-Me) = CCC(C)CCC(=O)*; dOrn = NCCC[C@@H](N)C(=O)O; Orn = NCCC[C@H](N)C(=O)O
Legend:
A. baumannii MDR = type: cell-based, Acinetobacter baumannii; conditions: A. baumannii MDR clinical isolate
Experimental: (§1) Minimum inhibitory concentration (MIC) was determined by broth microdilution according to CLSI guidelines. Blood agar plates were inoculated with glycerol stocks of Escherichia coli ATCC 25922, E. coli ATCC 25922 MCR-1, E. coli MCR-1 (clinical isolate from Utrecht Medical Center, NL), E. coli EQAS MCR-2 (clinical isolate from Wageningen University and Research, NL), Kiebsielia pneumoniae ATCC 11228, K. pneumoniae ATCC 13883, K. pneumonia 2048 (clinical isolate from Vrije Universiteit Amsterdam Medical Center, NL), K. pneumonia JS-123 (clinical isolate from Utrecht Medical Center, NL), Acinetobacter baumannii ATCC 17961, A. baumannil ATCC 17978, A. baumannii 2018-006 (clinical isolate from Rijksinstituut voor Volksgezondheid en Milieu, NL), A. baumannii MDR (clinical isolate from Vrije Universiteit Amsterdam Medical Center, NL), Pseudomonas aeruginosa ATCC 27853, P. aeruginosa PAO1, P. aeruginosa NRZ-03961 (Reference strain from Das Nationale Referenzzentrum für gramnegative Krankenhauserreger, DE), P. aeruginosa M-120 (clinical isolate from Leiden University Medical Center, NL) and Staphylococcus aureus USA300 (clinical isolate from Texas Children's Hospitalm, USA). E. coli 25922 MCR1 was grown on LB agar supplemented with kanamycin. The inoculated agar plates were then incubated for 16 hours at 37° C. Individually grown colonies were subsequently used to inoculate 3 mL aliquots of TSB that were then incubated at 37° C. with shaking at 220 rpm. In parallel, the compounds to be assessed were serially diluted with Mueller-Hinton broth (MHB) in polypropylene 96-well plates (50 μL in each well). Once the OD600 of the bacterial suspensions reached 0.5, the bacteria were diluted with MHB (final concentration 2×10^5 CFU mL^−1) and added to the microplates containing the test compounds (50 μL to each well, final volume: 100 μL). The well-plates were sealed with an adhesive membrane and after 16 hours of incubation at 37° C. with shaking at 220 rpm the wells were visually inspected for bacterial growth. MIC values were defined as the lowest concentration of the compound that prevented visible growth of bacteria.

HepG2 cells = assay: Cytotoxicity MTT assay; conditions: HepG2, 128 μg/mL, 24 h
Experimental: In addition to a single vehicle control, compounds (diluted from DMSO stock) were added to each well to obtain in a final 128 μg/mL concentration (max. final DMSO concentration 0.5%) for all compounds except for oritavancin which was administered at 50 μM. Incubation was done for 24 h at 37° C., 7% CO2. After the incubation, MTT was added to each well at a final concentration of 0.40 mg/mL. The plates were then incubated for 2 h at 37° C., 7% CO2. Medium was carefully removed via suction, and purple formazan crystals were resuspended in 100 μL DMSO. Absorbance was read at 570 nm using a Clariostar plate reader. The data was then analysed with GraphPad Prism software. Technical triplicates for each condition were used, along with biological duplicates.

E. coli MCR-1 = type: cell-based, Escherichia coli; conditions: E. coli MCR-1 clinical isolate (colistin resistant)
Experimental: as §1
(§2) In the table above, “MCR” denotes that one of the MCR family of genes, which confers colistin resistance, is present in the bacterial strain. Thus, E. coli ATCC 25922 MCR-1, E. coli MCR-1 and E. coli EQAS MCR-2 are each colistin resistant. […] Therefore, laterocidamide may overcome some of the challenges faced due to antibiotic resistance.

E. coli EQAS MCR-2 = type: cell-based, Escherichia coli; conditions: E. coli EQAS MCR-2 clinical isolate (colistin resistant)
Experimental: as §1, §2

E. coli ATCC 25922 MCR-1 = type: cell-based, Escherichia coli; conditions: E. coli ATCC 25922 MCR-1 (colistin resistant)
Experimental: as §1, §2

A. baumannii 2018-006 = type: cell-based, Acinetobacter baumannii; conditions: 2018-006
Experimental: as §1

A. baumannii ATCC 17978 = type: cell-based, Acinetobacter baumannii; conditions: ATCC 17978
Experimental: as §1

P. aeruginosa PAO1 = type: cell-based, Pseudomonas aeruginosa; conditions: PAO1
Experimental: as §1

P. aeruginosa M-120 = type: cell-based, Pseudomonas aeruginosa; conditions: M-120
Experimental: as §1

P. aeruginosa NRZ-03961 = type: cell-based, Pseudomonas aeruginosa; conditions: NRZ-03961
Experimental: as §1

[1] = test system: Staphylococcus aureus USA300; type: cell-based; conditions: USA300
Method in brief: (§3)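 Broth microdilution in MHB per CLSI; inoculum 2×10^5 CFU mL^−1 from log-phase TSB cultures at OD600 0.5. Plates incubated 16 hours at 37° C with shaking at 220 rpm. MIC is the lowest concentration preventing visible growth.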

[2] = test system: Pseudomonas aeruginosa ATCC 27853; type: cell-based; conditions: ATCC 27853
Method in brief: as §3

[3] = test system: Escherichia coli ATCC 25922; type: cell-based; conditions: ATCC 25922
Method in brief: as §3

[4] = test system: Acinetobacter baumannii ATCC 17961; type: cell-based; conditions: ATCC 17961
Method in brief: as §3

K. pneumoniae ATCC 11228 = type: cell-based, Klebsiella pneumoniae; conditions: ATCC 11228
Experimental: as §1

K. pneumoniae 2048 = type: cell-based, Klebsiella pneumoniae; conditions: 2048
Experimental: as §1

K. pneumoniae ATCC 13883 = type: cell-based, Klebsiella pneumoniae; conditions: ATCC 13883
Experimental: as §1

K. pneumoniae JS-123 = type: cell-based, Klebsiella pneumoniae; conditions: JS-123
Experimental: as §1

With CC[C@H](C)[C@@H]1NC(=O)[C@@H](NC(=O)[C@H](Cc2c[nH]c3ccccc23)NC(=O)[C@@H](CCCN)NC(=O)CNC(=O)[C@H](CCCN)NC(=O)[C@@H](CCCN)NC(=O)[C@@H](Cc2c[nH]c3ccccc23)NC(=O)[C@@H](Cc2ccc(O)cc2)NC(=O)[C@@H](CO)NC(=O)CCCCCC(C)C)[C@@H](C)OC(=O)CNC(=O)CNC(=O)[C@H](CC(N)=O)NC1=O [Laterocidine, laterocidine, reference compound] ({Octanoyl(7-Me)}-[dS][dY][dW][dOrn][Orn]G[dOrn]WTINGG; ester 9-C) the “Minimum inhibitory concentration (MIC)” value (A. baumannii MDR) was 1 µg/mL (≈ 0.623 µM), the “cytotoxicity / cell viability” value (HepG2 cells) was “completely non-toxic” and the “Minimum inhibitory concentration (MIC)” value (E. coli MCR-1) was 0.5 µg/mL (≈ 0.312 µM). The “Minimum inhibitory concentration (MIC)” value (E. coli EQAS MCR-2) was 1 µg/mL (≈ 0.623 µM) and the “Minimum inhibitory concentration (MIC)” value (E. coli ATCC 25922 MCR-1) was 2 µg/mL (≈ 1.25 µM).
CC[C@@H](C)[C@H]1NC(=O)[C@H](NC(=O)[C@@H](Cc2c[nH]c3ccccc23)NC(=O)[C@H](CCCN)NC(=O)CNC(=O)[C@@H](CCCN)NC(=O)[C@H](CCCN)NC(=O)[C@H](Cc2c[nH]c3ccccc23)NC(=O)[C@H](Cc2ccc(O)cc2)NC(=O)[C@H](CO)NC(=O)CCCCCC(C)C)[C@H](C)OC(=O)CNC(=O)CNC(=O)[C@@H](CC(N)=O)NC1=O [ent- Laterocidine] ({Octanoyl(7-Me)}-SYW[Orn][dOrn]G[Orn][dW][dT][dI][dN]GG; ester 9-C) was tested, and the “Minimum inhibitory concentration (MIC)” value (A. baumannii MDR) was 4 to 8 µg/mL, the “Minimum inhibitory concentration (MIC)” value (E. coli MCR-1) was 8 to 16 µg/mL and the “Minimum inhibitory concentration (MIC)” value (E. coli EQAS MCR-2) was 8 to 16 µg/mL. For the same compound, the “Minimum inhibitory concentration (MIC)” value (E. coli ATCC 25922 MCR-1) was 8 to 16 µg/mL.
For CCC(C)CCC(=O)N[C@H](CC(N)=O)C(=O)N[C@H](Cc1ccc(O)cc1)C(=O)N[C@H](Cc1c[nH]c2ccccc12)C(=O)N[C@H](CCCN)C(=O)N[C@@H](CCCN)C(=O)NCC(=O)N[C@H](CCCN)C(=O)N[C@@H](Cc1c[nH]c2ccccc12)C(=O)N[C@@H]1C(=O)N[C@@H]([C@@H](C)CC)C(=O)NCC(=O)N[C@@H](CO)C(=O)O[C@@H]1C (stereo partly drawn) [Brevicidine, brevicidine, reference compound] ({Hexanoyl(4ξ-Me)}-[dN][dY][dW][dOrn][Orn]G[dOrn]WTIGS; ester 9-C), the “cytotoxicity / cell viability” value (HepG2 cells) was “completely non-toxic”.
With CCC(C)CCC(=O)N[C@H](CC(N)=O)C(=O)N[C@H](Cc1ccc(O)cc1)C(=O)N[C@H](Cc1c[nH]c2ccccc12)C(=O)N[C@H](CCCN)C(=O)N[C@@H](CCCN)C(=O)NCC(=O)N[C@H](CCCN)C(=O)N[C@@H](Cc1c[nH]c2ccccc12)C(=O)N[C@H]1COC(=O)[C@H](CO)NC(=O)CNC(=O)[C@H]([C@@H](C)CC)NC1=O (single isomer, unassigned) [Ser9-Brevicidine] the “Minimum inhibitory concentration (MIC)” value (A. baumannii 2018-006) was 2 µg/mL (≈ 1.33 µM), the “Minimum inhibitory concentration (MIC)” value (A. baumannii MDR) was 1 to 2 µg/mL and the “Minimum inhibitory concentration (MIC)” value (A. baumannii ATCC 17978) was 2 µg/mL (≈ 1.33 µM). The “Minimum inhibitory concentration (MIC)” value (P. aeruginosa PAO1) was 2 to 4 µg/mL, the “Minimum inhibitory concentration (MIC)” value (P. aeruginosa M-120) was 2 µg/mL (≈ 1.33 µM) and the “Minimum inhibitory concentration (MIC)” value (P. aeruginosa NRZ-03961) was 4 µg/mL (≈ 2.66 µM). For the same compound, the “Minimum inhibitory concentration (MIC)” value (E. coli MCR-1) was 2 µg/mL (≈ 1.33 µM), the “Minimum inhibitory concentration (MIC)” value (E. coli EQAS MCR-2) was 4 to 8 µg/mL and the “Minimum inhibitory concentration (MIC)” value (E. coli ATCC 25922 MCR-1) was 4 µg/mL (≈ 2.66 µM). The “Minimum inhibitory concentration (MIC)” value [1] was over 64 µg/mL, the “Minimum inhibitory concentration (MIC)” value [2] was 1 µg/mL (≈ 0.664 µM) and the “Minimum inhibitory concentration (MIC)” value [3] was 4 µg/mL (≈ 2.66 µM). The “Minimum inhibitory concentration (MIC)” value [4] was 0.5 to 1 µg/mL, the “Minimum inhibitory concentration (MIC)” value (K. pneumoniae ATCC 11228) was 2 µg/mL (≈ 1.33 µM) and the “Minimum inhibitory concentration (MIC)” value (K. pneumoniae 2048) was 4 µg/mL (≈ 2.66 µM). The “Minimum inhibitory concentration (MIC)” value (K. pneumoniae ATCC 13883) was 2 µg/mL (≈ 1.33 µM) and the “Minimum inhibitory concentration (MIC)” value (K. pneumoniae JS-123) was 2 µg/mL (≈ 1.33 µM).

Source: patent publication US20240140991A1, “ANTIBIOTIC NATURAL PRODUCT ANALOGUES” (THE QUEEN'S UNIVERSITY OF BELFAST, priority 2021, published 2024)
